Data published in patent US20250108065A1 (AstraZeneca AB, priority 2022, published 2025).
Where two headings read alike, the source gives them in different places.

How the values were obtained:
[1] = DAPA-CKD
[2] = DAPA-HF, HbA1C < 6.5%, cited from earlier work
[3] = DAPA-HF (prediabetes); slope at 14-720 days
Excerpt: (§1) “eGFR slope” is the change in […] over time. “eGFR” stands for the estimated glomerular filtration rate.
(§2) (See Inker et al., GFR Slope as a Surrogate End Point for Kidney Disease Progression in Clinical Trials: A Meta-Analysis of Treatment Effects of Randomized Controlled Trials. J Am Soc Nephrol. 2019; 30 (9): 1735-45; Levey et al., GFR decline as an end point for clinical trials in CKD. Am J Kidney Dis. 2014; 64 (6): 821-35.)

[4] = Excerpt: as §1, §2
(§3) The patients without diabetes (or T2D) included those with prediabetes.

[5] = DAPA-CKD; remark: listed apart in the source
Excerpt: as §3

[6] = Meta-analysis DAPA-HF/CKD, cited from earlier work
[7] = DAPA-HF
[8] = DAPA-HF; remark: listed apart in the source
[9] = DAPA-CKD, HbA1C < 6.5%, cited from earlier work
[10] = remark: listed apart in the source
Protocol: The DECLARE study enrolled a broad T2D patient population. By using parameters to select for a relatively healthy population that is close to the prediabetes population, the DECLARE population was split into 4 subgroups. The four subgroups in DECLARE are those with eGFR ≥60 ml/min/1.73 m^2, no history of HF at baseline and: • 1. HbA1c <7%, SBP <140 mmHg, and UACR ≤300 mg/g, or • 2. HbA1c <7%, SBP <140 mmHg, and UACR <30 mg/g, or • 3. T2D <5 years and UACR ≤300 mg/g, or • 4. T2D <5 years and UACR ≤30 mg/g.
as §2

[11] = DECLARE subgroup: HbA1c <7%, eGFR ≥60 ml/min/1.73 m^2, no history of HF, UACR ≤300 mg/g; Dapa 10 mg vs placebo
[12] = non-diabetic and prediabetic patients, DAPA-HF and DAPA-CKD, 10 mg once daily
Excerpt: DAPA-HF and DAPA-CKD included patients without diabetes, including those who qualify as prediabetic.

[13] = pre-diabetic 5.7% ≤ HbA1c < 6.5, Dapa vs placebo

SMILES: CCOc1ccc(Cc2cc([C@@H]3O[C@H](CO)[C@@H](O)[C@H](O)[C@H]3O)ccc2Cl)cc1 [dapagliflozin]
- Event rate of new onset T2D ([1]; pre-diabetic 5.7% ≤ HbA1c < 6.5, 660 participants): Dapa: 2.7 per 100 patient-years of follow-up
- HR (95% CI) new onset T2D [1, 13]: 0.59 (0.33, 1.04)
- Event rate of new onset T2D ([2]; 2605 participants): Dapa: 5.0 per 100 patient-years of follow-up
- HR (95% CI) new onset T2D ([2]; Dapa vs placebo): 0.68 (0.50, 0.94)
- eGFR chronic slope, Slope diff between Dapa 10 mg and Placebo [3]: 1.35 ml/min/1.73 m^2/yr
- eGFR chronic slope, Slope diff between Dapa 10 mg and Placebo ([4]; DAPA-CKD (prediabetes), slope at 14 days-30 months): 1.44 ml/min/1.73 m^2/yr
- placebo-corrected difference in eGFR slope ([4]; DAPA-CKD, T2D patients, from baseline to end of treatment): 1.18 ml/min/1.73 m^2/yr
- placebo-corrected difference in eGFR slope ([4]; DAPA-CKD, T2D patients, from two weeks to end of treatment): 2.26 ml/min/1.73 m^2/yr
- placebo-corrected difference in eGFR slope ([4]; DAPA-CKD, patients without T2D, from baseline to end of treatment): 0.46 ml/min/1.73 m^2/yr
- placebo corrected difference in eGFR slope ([4]; DAPA-CKD, patients without T2D, from two weeks to end of treatment): 1.29 ml/min/1.73 m^2/yr
- HR, primary composite outcome of worsening of kidney function or death ([5]; patients with diabetes): 0.64
- HR, primary composite outcome of worsening of kidney function or death ([5]; patients without diabetes): 0.50
- Event rate of new onset T2D ([6]; HbA1c < 6.5%, 4003 participants): Dapa: 2.6 per 100 patient-years of follow-up
- HR (95% CI) new onset T2D ([6]; HbA1c < 6.5%, Dapa vs placebo): 0.67 (0.51, 0.88)
- Event rate of new onset T2D ([6]; pre-diabetic 5.7% ≤ HbA1c < 6.5, 2408 participants): Dapa: 4.2 per 100 patient-years of follow-up
- HR (95% CI) new onset T2D [6, 13]: 0.69 (0.52, 0.91)
- HR, primary composite outcome (CV death, hospitalization for HF, or urgent HF visit) ([7]; patients with diabetes): 0.75
- HR, primary composite outcome (CV death, hospitalization for HF, or urgent HF visit) ([7]; patients without diabetes): 0.73
- Event rate of new onset T2D ([8]; pre-diabetic 5.7% ≤ HbA1C < 6.5, 1748 participants): Dapa: 5.3 per 100 patient-years of follow-up
- HR (95% CI) new onset T2D ([8]; pre-diabetic 5.7% ≤ HbA1C < 6.5, Dapa vs placebo): 0.72 (0.52, 0.99)
- Event rate of new onset T2D ([9]; 1398 participants): Dapa: 1.4 per 100 patient-years of follow-up
- HR (95% CI) new onset T2D ([9]; Dapa vs placebo): 0.62 (0.36, 1.07)
- eGFR chronic slope, Slope diff between Dapa 10 mg and Placebo ([10]; DECLARE (Total Population), 6 months-2 yrs): 1.34 ml/min/1.73 m^2/yr
- eGFR chronic slope, Slope diff between Dapa 10 mg and Placebo ([10]; DECLARE (Total Population), 6 months-3 yrs): 1.18 ml/min/1.73 m^2/yr
- eGFR chronic slope, Slope diff between Dapa 10 mg and Placebo ([10]; DECLARE (Total Population), 6 months-4 yrs): 1.01 ml/min/1.73 m^2/yr
- eGFR chronic slope, Slope diff between Dapa 10 mg and Placebo ([10]; DECLARE subgroup HbA1c <7%, SBP <140 mmHg, UACR <30 mg/g, eGFR ≥60, no HF, 6 months-2 yrs): 1.25 ml/min/1.73 m^2/yr
- eGFR chronic slope, Slope diff between Dapa 10 mg and Placebo ([10]; DECLARE subgroup HbA1c <7%, SBP <140 mmHg, UACR <30 mg/g, eGFR ≥60, no HF, 6 months-3 yrs): 1.17 ml/min/1.73 m^2/yr
- eGFR chronic slope, Slope diff between Dapa 10 mg and Placebo ([10]; DECLARE subgroup HbA1c <7%, SBP <140 mmHg, UACR <30 mg/g, eGFR ≥60, no HF, 6 months-3 yrs, listed as Dapa): 1.71 ml/min/1.73 m^2/yr
- eGFR chronic slope, Slope diff between Dapa 10 mg and Placebo ([10]; DECLARE subgroup HbA1c <7%, SBP <140 mmHg, UACR <30 mg/g, eGFR ≥60, no HF, 6 months-4 yrs): 0.98 ml/min/1.73 m^2/yr
- eGFR chronic slope, Slope diff between Dapa 10 mg and Placebo ([10]; DECLARE subgroup HbA1c <7%, SBP <140 mmHg, UACR ≤300 mg/g, eGFR ≥60, no HF, 6 months-2 yrs): 1.56 ml/min/1.73 m^2/yr
- eGFR chronic slope, Slope diff between Dapa 10 mg and Placebo ([10]; DECLARE subgroup HbA1c <7%, SBP <140 mmHg, UACR ≤300 mg/g, eGFR ≥60, no HF, 6 months-3 yrs): 1.85 ml/min/1.73 m^2/yr
- eGFR chronic slope, Slope diff between Dapa 10 mg and Placebo ([10]; DECLARE subgroup HbA1c <7%, SBP <140 mmHg, UACR ≤300 mg/g, eGFR ≥60, no HF, 6 months-4 yrs): 1.08 ml/min/1.73 m^2/yr
- eGFR chronic slope, Slope diff between Dapa 10 mg and Placebo ([10]; DECLARE subgroup diabetes duration <5 years, UACR ≤30 mg/g, eGFR ≥60, no HF, 6 months-2 yrs): 1.03 ml/min/1.73 m^2/yr
- eGFR chronic slope, Slope diff between Dapa 10 mg and Placebo ([10]; DECLARE subgroup diabetes duration <5 years, UACR ≤30 mg/g, eGFR ≥60, no HF, 6 months-3 yrs): 0.96 ml/min/1.73 m^2/yr
- eGFR chronic slope, Slope diff between Dapa 10 mg and Placebo ([10]; DECLARE subgroup diabetes duration <5 years, UACR ≤30 mg/g, eGFR ≥60, no HF, 6 months-4 yrs): 0.86 ml/min/1.73 m^2/yr
- eGFR chronic slope, Slope diff between Dapa 10 mg and Placebo ([10]; DECLARE subgroup diabetes duration <5 years, UACR ≤300 mg/g, eGFR ≥60, no HF, 6 months-2 yrs): 0.88 ml/min/1.73 m^2/yr
- eGFR chronic slope, Slope diff between Dapa 10 mg and Placebo ([10]; DECLARE subgroup diabetes duration <5 years, UACR ≤300 mg/g, eGFR ≥60, no HF, 6 months-3 yrs): 0.92 ml/min/1.73 m^2/yr
- eGFR chronic slope, Slope diff between Dapa 10 mg and Placebo ([10]; DECLARE subgroup diabetes duration <5 years, UACR ≤300 mg/g, eGFR ≥60, no HF, 6 months-4 yrs): 0.86 ml/min/1.73 m^2/yr
- renal benefits following dapagliflozin treatment ([10]; DECLARE, T2D patients with eGFR 60 to 90 and ≥90 ml/min/1.73 m^2): reduced eGFR decline and albuminuria
- risk of worsening blood pressure (time to worsening in blood pressure category) [11]: lowered the risk of worsening blood pressure compared with placebo
- Events of definite or probable diabetic ketoacidosis (DKA) [12]: not observed
- major hypoglycemic AEs [12]: not observed
- safety profile [12]: consistent with the profile established in patients with T2D
